Test results reported in patent publication US7470684B2, “Spiropiperidine derivatives as NK3 antagonists” (Hoffmann-La Roche Inc., priority 2007, dated 2008).
Where two headings read alike, the source gives them in different places.

Biological target: T1, human NK3 receptor (Homo sapiens, UniProt P29371)
T1 construct: expressed in transfected cells; host or cells: HEK293 cells, transiently transfected; membranes
T1 sequence (P29371 1-465): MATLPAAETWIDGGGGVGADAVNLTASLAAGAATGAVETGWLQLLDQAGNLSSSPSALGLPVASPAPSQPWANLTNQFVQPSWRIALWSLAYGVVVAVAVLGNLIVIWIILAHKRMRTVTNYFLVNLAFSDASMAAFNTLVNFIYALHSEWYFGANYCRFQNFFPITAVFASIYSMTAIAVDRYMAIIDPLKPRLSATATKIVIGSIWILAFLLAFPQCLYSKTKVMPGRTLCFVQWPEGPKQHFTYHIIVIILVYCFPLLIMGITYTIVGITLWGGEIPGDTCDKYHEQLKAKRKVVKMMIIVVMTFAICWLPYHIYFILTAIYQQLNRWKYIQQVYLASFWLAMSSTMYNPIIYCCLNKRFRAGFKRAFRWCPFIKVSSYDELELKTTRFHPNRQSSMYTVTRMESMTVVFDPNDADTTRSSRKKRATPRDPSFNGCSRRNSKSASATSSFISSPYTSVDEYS
Experiment: [3H]SR142801 competition binding assay
Procedure: [^3H]SR142801 Competition Binding Assay
hNK3 receptor binding experiment were performed using [^3H]SR142801 (Catalog No. TRK1035, specific activity: 74.0 Ci/mmol, Amersham, GE Healthcare UK limited, Buckinghamshire, UK) and membrane isolated from HEK293 cells transiently expressing recombinant human NK3 receptor. After thawing, the membrane homogenates were centrifuged at 48,000×g for 10 min at 4° C., the pellets were resuspended in the 50 mM Tris-HCl, 4 mM MnCl2, 1 μM phosphoramidon, 0.1% BSA binding buffer at pH 7.4 to a final assay concentration of 5 μg protein/well. For inhibition experiments, membranes were incubated with [^3H]SR142801 at a concentration equal to KD value of radioligand and 10 concentrations of the inhibitory compound (0.0003-10 μM) (in a total reaction volume of 500 μl) for 75 min at room temperature (RT). At the end of the incubation, membranes were filtered onto unitfilter (96-well white microplate with bonded GF/C filter preincubated 1 h in 0.3% PEI+0.3% BSA, Packard BioScience, Meriden, Conn.) with a Filtermate 196 harvester (Packard BioScience) and washed 4 times with ice-cold 50 mM Tris-HCl, pH 7.4 buffer. Nonspecific binding was measured in the presence of 10 μM SB222200 for both radioligands. The radioactivity on the filter was counted (5 min) on a Packard Top-count microplate scintillation counter with quenching correction after addition of 45 μl of microscint 40 (Canberra Packard S.A., Zürich, Switzerland) and shaking for 1 h. Inhibition curves were fitted according to the Hill equation: y=100/(1+(x/IC50)^nH), where nH=slope factor using Excel-fit 4 software (Microsoft). IC50 values were derived from the inhibition curve and the affinity constant (Ki) values were calculated using the Cheng-Prussoff equation Ki=IC50/(1+[L]/KD) where [L] is the concentration of radioligand and KD is its dissociation constant at the receptor, derived from the saturation isotherm. All experiments were performed in duplicate and the mean±standard error (SEM) of the individual Ki values was calculated.

[1] = hNK3 Ki, [3H]SR142801 displacement, membranes of HEK293 cells transiently expressing recombinant human NK3 receptor
[2] = [3H]SR142801 displacement, membranes of HEK293 cells transiently expressing recombinant human NK3 receptor, read-out: hNK3 Ki

Row | Compound | Ki [1] | other results
1 | COc1cc(CN(C)C(=O)C(CCN2CCC3(CC2)OC(=O)N(C)c2ccc(F)cc23)c2ccc(Cl)c(Cl)c2)ccc1OC(F)F (stereo not drawn) [Example 100, 2-(3,4-dichlorophenyl)-N-[4-(difluoromethoxy)-3-methoxybenzyl]-4-(6-fluoro-1-methyl-2-oxo-1,2-dihydro-1′H-spiro[3,1-benzoxazine-4,4′-piperidin]-1′-yl)-N-methyl-butanamide] | 2.6 nM | 
2 | O=C1Nc2ccc(F)cc2C2(CCN(CCC(C(=O)NCc3ccc(Cl)cc3)c3ccc(Cl)c(Cl)c3)CC2)O1 (stereo not drawn) [Example 8, N-(4-chlorobenzyl)-2-(3,4-dichlorophenyl)-4-(6-fluoro-2-oxo-1,2-dihydro-1′H-spiro[3,1-benzoxazine-4,4′-piperidin]-1′-yl)butanamide] | 17 nM | 
3 | CN(Cc1ccc(Cl)cc1)C(=O)C(CCN1CCC2(CC1)OC(=O)Nc1ccc(F)cc12)c1ccc(F)cc1 (stereo not drawn) [Example 26, N-(4-chlorobenzyl)-4-(6-fluoro-2-oxo-1,2-dihydro-1′H-spiro[3,1-benzoxazine-4,4′-piperidin]-1′-yl)-2-(4-fluorophenyl)-N-methylbutanamide] | 38.3 nM | 
4 | O=C1Nc2ccc(F)cc2C2(CCN(CCC(C(=O)NCc3ccccc3OC(F)(F)F)c3ccc(Cl)c(Cl)c3)CC2)O1 (stereo not drawn) [Example 66, 2-(3,4-dichlorophenyl)-4-(6-fluoro-2-oxo-1,2-dihydro-1′H-spiro[3,1-benzoxazine-4,4′-piperidin]-1′-yl)-N-[2-(trifluoromethoxy)benzyl]butanamide] | 28.8 nM | 
5 | CN(Cc1ccc(C(F)(F)F)cc1)C(=O)C(CCCN1CCC2(CC1)OC(=O)Nc1ccc(F)cc12)c1ccc(Cl)c(Cl)c1 (stereo not drawn) [Example 121, 2-(3,4-dichlorophenyl)-5-(6-fluoro-2-oxo-1,2-dihydro-1′H-spiro[3,1-benzoxazine-4,4′-piperidin]-1′-yl)-N-methyl-N-[4-(trifluoromethyl)benzyl]pentanamide] | 64.7 nM | 
6 | N#Cc1ccc(CNC(=O)C(CCN2CCC3(CC2)OC(=O)Nc2ccc(F)cc23)c2ccc(Cl)c(Cl)c2)cc1 (stereo not drawn) [Example 86, N-(4-cyanobenzyl)-2-(3,4-dichlorophenyl)-4-(6-fluoro-2-oxo-1,2-dihydro-1′H-spiro[3,1-benzoxazine-4,4′-piperidin]-1′-yl)butanamide] | 12.1 nM | 
7 | CN(Cc1ccc(Cl)cc1)C(=O)[C@@H](CCN1CCC2(CC1)OC(=O)N(C)c1ccc(F)cc12)c1ccc(Cl)c(Cl)c1 [Example 148, (2S)-N-(4-chlorobenzyl)-2-(3,4-dichlorophenyl)-4-(6-fluoro-1-methyl-2-oxo-1,2-dihydro-1′H-spiro[3,1-benzoxazine-4,4′-piperidin]-1′-yl)-N-methylbutanamide] |  | Ki [2]: 0.4 nM
8 | CN(Cc1ccc(F)cc1)C(=O)C(CCN1CCC2(CC1)OC(=O)Nc1ccc(F)cc12)c1ccc(F)cc1 (stereo not drawn) [Example 59, N-(4-fluorobenzyl)-4-(6-fluoro-2-oxo-1,2-dihydro-1′H-spiro[3,1-benzoxazine-4,4′-piperidin]-1′-yl)-2-(4-fluorophenyl)-N-methylbutanamide] | 48.9 nM | 
9 | CN(Cc1ccccc1Cl)C(=O)C(CCN1CCC2(CC1)OC(=O)Nc1ccc(F)cc12)c1ccc(F)cc1 (stereo not drawn) [Example 27, N-(2-chlorobenzyl)-4-(6-fluoro-2-oxo-1,2-dihydro-1′H-spiro[3,1-benzoxazine-4,4′-piperidin]-1′-yl)-2-(4-fluorophenyl)-N-methylbutanamide] | 38.5 nM | 
10 | CN(Cc1ccc(N2CCOCC2)cc1)C(=O)C(CCN1CCC2(CC1)OC(=O)N(C)c1ccc(F)cc12)c1ccc(Cl)c(Cl)c1 (stereo not drawn) [Example 95, 2-(3,4-dichlorophenyl)-4-(6-fluoro-1-methyl-2-oxo-1,2-dihydro-1′H-spiro[3,1-benzoxazine-4,4′-piperidin]-1′-yl)-N-methyl-N-(4-morpholin-4-ylbenzyl)butanamide] | 28.8 nM | 
11 | Cc1ccc(CNC(=O)C(CCN2CCC3(CC2)OC(=O)N(C)c2ccc(F)cc23)c2ccc(Cl)c(Cl)c2)cc1 (stereo not drawn) [Example 31, 2-(3,4-dichlorophenyl)-4-(6-fluoro-1-methyl-2-oxo-1,2-dihydro-1′H-spiro[3,1-benzoxazine-4,4′-piperidin]-1′-yl)-N-(4-methylbenzyl)butanamide] | 5.8 nM | 
12 | Cc1ccc(CN(C)C(=O)C(CCN2CCC3(CC2)OC(=O)Nc2ccc(F)cc23)c2ccc(F)cc2)cc1 (stereo not drawn) [Example 56, 4-(6-fluoro-2-oxo-1,2-dihydro-1′H-spiro[3,1-benzoxazine-4,4′-piperidin]-1′-yl)-2-(4-fluorophenyl)-N-methyl-N-(4-methylbenzyl)butanamide] | 66.4 nM | 
13 | O=C1Nc2ccc(F)cc2C2(CCN(CCC(C(=O)NCc3cccc(OC(F)F)c3)c3ccc(Cl)c(Cl)c3)CC2)O1 (stereo not drawn) [Example 67, 2-(3,4-dichlorophenyl)-N-[3-(difluoromethoxy)benzyl]4-(6-fluoro-2-oxo-1,2-dihydro-1′H-spiro[3,1-benzoxazine-4,4′-piperidin]-1′-yl)butanamide] | 19 nM | 
14 | CN1C(=O)OC2(CCN(CCC(C(=O)NCc3ccc(Cl)cc3)c3ccc(Cl)c(Cl)c3)CC2)c2cc(F)ccc21 (stereo not drawn) [Example 34, N-(4-chlorobenzyl)-2-(3,4-dichlorophenyl)-4-(6-fluoro-1-methyl-2-oxo-1,2-dihydro-1′H-spiro[3,1-benzoxazine-4,4′piperidin]-1′-yl)-butanamide] | 3.3 nM | 
15 | O=C1Nc2ccc(F)cc2C2(CCN(CCC(C(=O)NCc3ccc(F)cc3)c3ccc(Cl)c(Cl)c3)CC2)O1 (stereo not drawn) [Example 81, 2-(3,4-dichlorophenyl)-N-(4-fluorobenzyl)-4-(6-fluoro-2-oxo-1,2-dihydro-1′H-spiro[3,1-benzoxazine-4,4′-piperidin]-1′-yl)-butanamide] | 11.6 nM | 
16 | CN1C(=O)OC2(CCN(CCC(C(=O)NCc3ccc(OC(F)(F)F)cc3)c3ccc(Cl)c(Cl)c3)CC2)c2cc(F)ccc21 (stereo not drawn) [Example 110, 2-(3,4-dichlorophenyl)-4-(6-fluoro-1-methyl-2-oxo-1,2-dihydro-1′H-spiro[3,1-benzoxazine-4,4′-piperidin]-1′-yl)-N-[4-(trifluoromethoxy)benzyl]butanamide] | 3.2 nM | 
17 | CCCCN(C)C(=O)C(CCN1CCC2(CC1)OC(=O)Nc1ccc(F)cc12)c1ccc(Cl)c(Cl)c1 (stereo not drawn) [Example 14, N-butyl-2-(3,4-dichlorophenyl)-4-(6-fluoro-2-oxo-1,2-dihydro-1′H-spiro[3,1-benzoxazine-4,4′-piperidin]-1′-yl)-N-methylbutanamide] |  | Ki: 90.8 nM
18 | O=C1Nc2ccc(F)cc2C2(CCN(CCCC(C(=O)NCc3ccc(F)cc3)c3ccc(Cl)c(Cl)c3)CC2)O1 (stereo not drawn) [Example 132, 2-(3,4-dichlorophenyl)-N-(4-fluorobenzyl)-5-(6-fluoro-2-oxo-1,2-dihydro-1′H-spiro[3,1-benzoxazine-4,4′-piperidin]-1′-yl)-pentanamide] |  | Ki: 65.7 nM
19 | O=C1Nc2ccc(F)cc2C2(CCN(CCCC(C(=O)NCc3ccc(C(F)(F)F)cc3)c3ccc(Cl)c(Cl)c3)CC2)O1 (stereo not drawn) [Example 135, 2-(3,4-dichlorophenyl)-5-(6-fluoro-2-oxo-1,2-dihydro-1′H-spiro[3,1-benzoxazine-4,4′-piperidin]-1′-yl)-N-[4-(trifluoromethyl)benzyl]pentanamide] |  | Ki [2]: 90.3 nM
20 | CN1C(=O)OC2(CCN(CCC(C(=O)NCc3ccc(F)cc3)c3ccc(Cl)c(Cl)c3)CC2)c2cc(F)ccc21 (stereo not drawn) [Example 106, 2-(3,4-dichlorophenyl)-N-(4-fluorobenzyl)-4-(6-fluoro-1-methyl-2-oxo-1,2-dihydro-1′H-spiro[3,1-benzoxazine-4,4′-piperidin]-1′-yl)-butanamide] | 2.7 nM | 
21 | CN(Cc1ccc(Cl)cc1)C(=O)C(CCN1CCC2(CC1)OC(=O)N(C)c1ccc(F)cc12)c1ccc(Cl)c(Cl)c1 (stereo not drawn) [Example 42, N-(4-chlorobenzyl)-2-(3,4-dichlorophenyl)-4-(6-fluoro-1-methyl-2-oxo-1,2-dihydro-1′H-spiro[3,1-benzoxazine-4,4′-piperidin]-1′-yl)-N-methylbutanamide] |  | Ki: 0.8 nM
